{"source": "patent US6440958B1", "about": "“Acrylic and propionic acid compounds, intermediates, processes, compositions, and methods” (Eli Lilly and Company, priority 1995, dated 2002)", "key": {"[1]": {"test_system": "ovariectomized (OVX) rats", "test": "Serum cholesterol in ovariectomized rat post-menopausal model", "type": "in vivo, Sprague Dawley rats", "details": "oral, daily for 4 days", "description": "(§1) In the examples illustrating the methods, a post-menopausal model was used in which effects of different treatments upon circulating lipids were determined.\n(§2) Seventy-five day old female Sprague Dawley rats (weight range of 200 to 225g) were obtained from Charles River Laboratories (Portage, Mich.). The animals were either bilaterally ovariectomized (OVX) or exposed to a Sham surgical procedure at Charles River Laboratories, and then shipped after one week. Upon arrival, they were housed in metal hanging cages in groups of 3 or 4 per cage and had ad libitum access to food (calcium content approximately 0.5%) and water for one week. Room temperature was maintained at 22.2°±1.7° C. with a minimum relative humidity of 40%. The photoperiod in the room was 12 hours light and 12 hours dark.\n(§3) Dosing Regimen Tissue Collection. After a one week acclimation period (therefore, two weeks post-OVX) daily dosing with test compound was initiated. 17α-ethynyl estradiol or the test compound were given orally, unless otherwise stated, as a suspension in 1% carboxymethylcellulose or dissolved or suspended in 20% cyclodextrin. Animals were dosed daily for 4 days. Following the dosing regimen, animals were weighed and anesthetized with a ketamine: Xylazine (2:1, V:V) mixture and a blood sample was collected by cardiac puncture. The animals were then sacrificed by asphyxiation with CO2, the uterus was removed through a midline incision, and a wet uterine weight was determined.\nCholesterol Analysis. Blood samples were allowed to clot at room temperature for 2 hours, and serum was obtained following centrifugation for 10 minutes at 3000 rpm. Serum cholesterol was determined using a Boehringer Mannheim Diagnostics high performance cholesterol assay. Briefly the cholesterol was oxidized to cholest-4-en-3-one and hydrogen peroxide. The hydrogen peroxide was then reacted with phenol and 4-aminophenazone in the presence of peroxidase to produce a p-quinone imine dye, which was read spectrophotometrically at 500 nm. Cholesterol concentration was then calculated against a standard curve. The entire assay was automated using a Biomek Automated Workstation."}, "[2]": {"test_system": "ovariectomized (OVX) rats", "test": "Uterine eosinophil peroxidase (EPO) assay", "type": "in vivo, Sprague Dawley rats", "set-up": "unit not given here", "details": "oral, daily for 4 days", "text": "as §2, §3\nUterine Eosinoihil Peroxidase (EPO) Assay. Uteri were kept at 4° C. until time of enzymatic analysis. The uteri were then homogenized in 50 volumes of 50 mM Tris buffer (pH -8.0) containing 0.005% Triton X-100. Upon addition of 0.01% hydrogen peroxide and 10 mM O-phenylenediamine (final concentrations) in Tris buffer, increase in absorbance was monitored for one minute at 450 nm. The presence of eosonophils in the uterus is an indication of estrogenic activity of a compound. The maximal velocity of a 15 second interval was determined over the initial, linear portion of the reaction curve."}, "[3]": {"test_system": "ovariectomized (OVX) rats", "test": "Uterine wet weight in ovariectomized rat post-menopausal model", "type": "in vivo, Sprague Dawley rats", "details": "for Uterine weight (% increase vs. OVX): oral, daily for 4 days, OVX rats", "description": "as §1, §2, §3"}, "[4]": {"test_system": "ovariectomized (OVX) rats", "test": "Uterine eosinophil peroxidase (EPO) assay", "type": "in vivo, Sprague Dawley rats"}, "[5]": {"details": "dose 0.1 mg/kg, test compounds in CDX susp. or soln."}, "[6]": {"details": "dose 0.1 mg/kg, test compounds in CDX (cyclodextrin) susp. or soln."}, "[7]": {"details": "dose 1 mg/kg, CDX susp. or soln."}, "[8]": {"details": "dose 10 mg/kg, CDX susp. or soln."}}, "data": [{"smiles": "C#C[C@]1(O)CC[C@H]2[C@@H]3CCc4cc(O)ccc4[C@H]3CC[C@@]21C", "note": "[EE2, 17α-ethynyl estradiol, reference compound]", "values": [{"measurement": "Serum Cholesterol (% decrease vs. OVX)", "setting": "[1]; [5]", "result": 68.6, "unit": "%"}, {"measurement": "Uterine EPO (V. max)", "setting": "[2]; [5]", "result": 130.5}, {"measurement": "Uterine weight (% increase vs. OVX)", "setting": "[3]; [6]", "result": 201.3, "unit": "%"}, {"measurement": "Effect on uterus / uterine weight (in words)", "setting": "[3]; orally administered at 0.1 mg/kg/day, vs. ovariectomized test animals", "result": "uterine weight was substantially greater than the uterine weight of ovariectomized test animals"}, {"measurement": "Eosinophil infiltration into the uterus (stromal layer), in words", "setting": "[4]", "result": "substantial, expected increase in eosinophil infiltration"}]}, {"smiles": "COc1ccc(-c2sc3cc(OC)ccc3c2C(=O)c2ccc(/C=C/C(=O)O)cc2)cc1", "note": "[Example 2]", "values": [{"measurement": "Serum Cholesterol (% decrease vs. OVX)", "setting": "[1]; [5]", "result": "−16.6", "unit": "%"}, {"measurement": "Serum Cholesterol (% decrease vs. OVX)", "setting": "[1]; [7]", "result": "−37.3", "unit": "%"}, {"measurement": "Serum Cholesterol (% decrease vs. OVX)", "setting": "[1]; [8]", "result": 73.2, "unit": "%"}, {"measurement": "melting point", "result": "204 to 207", "unit": "°C"}, {"measurement": "Uterine EPO (V. max)", "setting": "[2]; [5]", "result": 2.1}, {"measurement": "Uterine EPO (V. max)", "setting": "[2]; [7]", "result": 2.1}, {"measurement": "Uterine EPO (V. max)", "setting": "[2]; [8]", "result": 35.1}, {"measurement": "Uterine weight (% increase vs. OVX)", "setting": "[3]; [6]", "result": 25.0, "unit": "%"}, {"measurement": "Uterine weight (% increase vs. OVX)", "setting": "[3]; [7]", "result": 23.3, "unit": "%"}, {"measurement": "Uterine weight (% increase vs. OVX)", "setting": "[3]; [8]", "result": 119.9, "unit": "%"}]}, {"smiles": "O=C(O)/C=C/c1ccc(C(=O)c2c(-c3ccc(O)cc3)sc3cc(O)ccc23)cc1", "note": "[Example 3, (E)-6-hydroxy-3-[4-(2-carboxyvinyl)benzoyl]-2-(4-hydroxyphenyl)benzo[b]thiophene]", "values": [{"measurement": "Serum Cholesterol (% decrease vs. OVX)", "setting": "[1]; [5]", "result": "−15.1", "unit": "%"}, {"measurement": "Serum Cholesterol (% decrease vs. OVX)", "setting": "[1]; [7]", "result": "−26.6", "unit": "%"}, {"measurement": "Serum Cholesterol (% decrease vs. OVX)", "setting": "[1]; [8]", "result": 57.7, "unit": "%"}, {"measurement": "Uterine EPO (V. max)", "setting": "[2]; [5]", "result": 0.9}, {"measurement": "Uterine EPO (V. max)", "setting": "[2]; [7]", "result": 1.2}, {"measurement": "Uterine EPO (V. max)", "setting": "[2]; [8]", "result": 8.4}, {"measurement": "Uterine weight (% increase vs. OVX)", "setting": "[3]; [6]", "result": 23.9, "unit": "%"}, {"measurement": "Uterine weight (% increase vs. OVX)", "setting": "[3]; [7]", "result": 19.7, "unit": "%"}, {"measurement": "Uterine weight (% increase vs. OVX)", "setting": "[3]; [8]", "result": 97.3, "unit": "%"}]}, {"smiles": "O=C(O)CCc1ccc(C(=O)c2c(-c3ccc(O)cc3)sc3cc(O)ccc23)cc1", "note": "[Example 4, 6-hydroxy-3-[4-(2-carboxyethyl)benzoyl]-2-(4-hydroxyphenyl)benzo[b]thiophene]", "values": [{"measurement": "Serum Cholesterol (% decrease vs. OVX)", "setting": "[1]; [5]", "result": "−46.2", "unit": "%"}, {"measurement": "Serum Cholesterol (% decrease vs. OVX)", "setting": "[1]; [7]", "result": "−28.8", "unit": "%"}, {"measurement": "Serum Cholesterol (% decrease vs. OVX)", "setting": "[1]; [8]", "result": 16.5, "unit": "%"}, {"measurement": "melting point", "result": "244 to 248", "unit": "°C"}, {"measurement": "Uterine EPO (V. max)", "setting": "[2]; [5]", "result": 0.0}, {"measurement": "Uterine EPO (V. max)", "setting": "[2]; [7]", "result": 0.0}, {"measurement": "Uterine EPO (V. max)", "setting": "[2]; [8]", "result": 1.2}, {"measurement": "Uterine weight (% increase vs. OVX)", "setting": "[3]; [6]", "result": "−45.9", "unit": "%"}, {"measurement": "Uterine weight (% increase vs. OVX)", "setting": "[3]; [7]", "result": "−37.0", "unit": "%"}, {"measurement": "Uterine weight (% increase vs. OVX)", "setting": "[3]; [8]", "result": 29.3, "unit": "%"}]}]}
